Source: patent publication US20240246942A1, “KINASE INHIBITORS FOR THE TREATMENT OF NEURODEGENERATIVE DISEASES” (priority 2020, published 2024)

Tests used:
Assay in all cases: biochemical
[1] = target: T1, panel of 374 wild-type kinases (Homo sapiens, UniProt Q8N5S9); conditions: read-out: % Enzyme Activity (relative to DMSO controls), CAMKK1
T1 construct: purchased Reaction Biology Corporation

[2] = target: T2, panel of 374 wild-type kinases (Homo sapiens, UniProt P36888); conditions: read-out: % Enzyme Activity (relative to DMSO controls), FLT3
T2 construct: purchased Reaction Biology Corporation
T2 sequence (P36888 27-993): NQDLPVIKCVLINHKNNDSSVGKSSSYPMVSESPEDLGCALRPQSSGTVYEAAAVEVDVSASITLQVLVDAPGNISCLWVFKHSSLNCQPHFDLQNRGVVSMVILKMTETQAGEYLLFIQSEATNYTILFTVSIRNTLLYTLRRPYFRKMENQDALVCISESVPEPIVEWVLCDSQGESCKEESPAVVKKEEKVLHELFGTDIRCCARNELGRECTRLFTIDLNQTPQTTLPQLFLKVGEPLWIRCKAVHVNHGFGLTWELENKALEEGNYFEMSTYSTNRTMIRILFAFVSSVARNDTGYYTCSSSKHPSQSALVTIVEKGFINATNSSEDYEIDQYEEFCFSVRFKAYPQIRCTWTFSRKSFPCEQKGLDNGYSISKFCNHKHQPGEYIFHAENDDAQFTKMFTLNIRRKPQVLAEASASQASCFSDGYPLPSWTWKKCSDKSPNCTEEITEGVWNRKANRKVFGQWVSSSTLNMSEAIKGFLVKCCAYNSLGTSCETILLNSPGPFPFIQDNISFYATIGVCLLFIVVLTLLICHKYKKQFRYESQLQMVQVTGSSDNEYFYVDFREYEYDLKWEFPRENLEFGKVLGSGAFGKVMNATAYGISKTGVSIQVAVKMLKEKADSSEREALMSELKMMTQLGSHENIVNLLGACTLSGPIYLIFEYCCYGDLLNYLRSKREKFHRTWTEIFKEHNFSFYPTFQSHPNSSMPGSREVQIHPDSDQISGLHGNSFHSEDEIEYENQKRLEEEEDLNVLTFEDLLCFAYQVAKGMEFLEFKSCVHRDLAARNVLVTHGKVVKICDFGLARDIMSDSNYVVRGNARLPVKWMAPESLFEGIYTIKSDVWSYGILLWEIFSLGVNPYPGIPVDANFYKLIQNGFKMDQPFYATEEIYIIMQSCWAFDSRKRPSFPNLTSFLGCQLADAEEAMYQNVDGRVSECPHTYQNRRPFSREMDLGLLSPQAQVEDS

[3] = target: T3, panel of 374 wild-type kinases (Homo sapiens, UniProt P49760); conditions: read-out: % Enzyme Activity (relative to DMSO controls), CLK2
T3 construct: purchased Reaction Biology Corporation

[4] = target: T4, panel of 374 wild-type kinases (Homo sapiens, UniProt Q5VT25); conditions: read-out: % Enzyme Activity (relative to DMSO controls), MRCKa/CDC42BPA
T4 construct: purchased Reaction Biology Corporation

[5] = target: T5, panel of 374 wild-type kinases (Homo sapiens, UniProt Q8TD08); conditions: read-out: % Enzyme Activity (relative to DMSO controls), ERK7/MAPK15
T5 construct: purchased Reaction Biology Corporation
T5 sequence (Q8TD08 1-544): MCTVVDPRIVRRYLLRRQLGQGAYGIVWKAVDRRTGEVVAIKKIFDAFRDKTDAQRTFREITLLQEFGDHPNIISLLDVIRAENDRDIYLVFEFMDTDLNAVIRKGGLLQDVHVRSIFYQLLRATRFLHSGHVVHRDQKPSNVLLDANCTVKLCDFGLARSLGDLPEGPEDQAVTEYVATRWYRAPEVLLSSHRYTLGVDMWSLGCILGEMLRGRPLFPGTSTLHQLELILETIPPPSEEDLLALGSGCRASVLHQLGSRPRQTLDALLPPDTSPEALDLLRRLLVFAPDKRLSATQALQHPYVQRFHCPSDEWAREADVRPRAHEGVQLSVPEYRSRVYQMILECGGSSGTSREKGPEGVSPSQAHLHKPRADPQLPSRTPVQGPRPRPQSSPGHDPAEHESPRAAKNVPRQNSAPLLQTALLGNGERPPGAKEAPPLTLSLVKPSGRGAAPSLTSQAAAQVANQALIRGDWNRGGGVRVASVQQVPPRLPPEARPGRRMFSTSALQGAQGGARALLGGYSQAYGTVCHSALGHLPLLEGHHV

[6] = target: T6, panel of 374 wild-type kinases (Homo sapiens, UniProt P32298); conditions: read-out: % Enzyme Activity (relative to DMSO controls), GRK4
T6 construct: purchased Reaction Biology Corporation

[7] = target: T7, panel of 374 wild-type kinases (Homo sapiens, UniProt O96017); conditions: read-out: % Enzyme Activity (relative to DMSO controls), CHK2
T7 construct: purchased Reaction Biology Corporation

[8] = target: T8, panel of 374 wild-type kinases (Homo sapiens, UniProt Q9UEW8); conditions: kinase STK39/STLK3, read-out: % Enzyme Activity (relative to DMSO controls)
T8 construct: purchased Reaction Biology Corporation

T3 sequence (P49760 whole entry): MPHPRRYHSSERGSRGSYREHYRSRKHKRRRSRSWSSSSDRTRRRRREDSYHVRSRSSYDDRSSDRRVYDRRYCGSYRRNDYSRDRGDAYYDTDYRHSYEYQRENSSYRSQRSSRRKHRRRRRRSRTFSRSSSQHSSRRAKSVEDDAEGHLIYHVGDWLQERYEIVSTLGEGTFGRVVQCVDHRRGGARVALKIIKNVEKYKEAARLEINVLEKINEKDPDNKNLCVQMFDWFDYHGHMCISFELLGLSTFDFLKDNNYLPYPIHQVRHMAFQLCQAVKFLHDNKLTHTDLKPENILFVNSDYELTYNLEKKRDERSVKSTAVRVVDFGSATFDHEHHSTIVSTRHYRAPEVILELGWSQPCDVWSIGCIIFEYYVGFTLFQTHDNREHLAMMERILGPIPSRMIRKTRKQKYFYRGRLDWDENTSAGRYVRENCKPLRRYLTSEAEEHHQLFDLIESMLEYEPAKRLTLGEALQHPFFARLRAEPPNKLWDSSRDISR
T1 sequence (Q8N5S9 whole entry): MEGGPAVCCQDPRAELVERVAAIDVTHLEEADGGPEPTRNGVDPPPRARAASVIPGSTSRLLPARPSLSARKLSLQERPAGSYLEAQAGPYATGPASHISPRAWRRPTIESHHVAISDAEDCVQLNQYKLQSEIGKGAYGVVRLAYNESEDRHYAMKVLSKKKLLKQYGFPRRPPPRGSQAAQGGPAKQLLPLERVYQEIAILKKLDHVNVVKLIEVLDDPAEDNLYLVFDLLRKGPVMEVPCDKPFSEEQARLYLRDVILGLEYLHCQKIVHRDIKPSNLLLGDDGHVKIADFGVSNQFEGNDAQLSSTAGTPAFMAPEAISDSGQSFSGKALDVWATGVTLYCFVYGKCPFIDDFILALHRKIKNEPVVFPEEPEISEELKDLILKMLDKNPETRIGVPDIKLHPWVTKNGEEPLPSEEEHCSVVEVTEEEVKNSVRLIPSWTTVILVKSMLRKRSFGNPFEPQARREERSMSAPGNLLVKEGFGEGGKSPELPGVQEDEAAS
T4 sequence (Q5VT25 whole entry): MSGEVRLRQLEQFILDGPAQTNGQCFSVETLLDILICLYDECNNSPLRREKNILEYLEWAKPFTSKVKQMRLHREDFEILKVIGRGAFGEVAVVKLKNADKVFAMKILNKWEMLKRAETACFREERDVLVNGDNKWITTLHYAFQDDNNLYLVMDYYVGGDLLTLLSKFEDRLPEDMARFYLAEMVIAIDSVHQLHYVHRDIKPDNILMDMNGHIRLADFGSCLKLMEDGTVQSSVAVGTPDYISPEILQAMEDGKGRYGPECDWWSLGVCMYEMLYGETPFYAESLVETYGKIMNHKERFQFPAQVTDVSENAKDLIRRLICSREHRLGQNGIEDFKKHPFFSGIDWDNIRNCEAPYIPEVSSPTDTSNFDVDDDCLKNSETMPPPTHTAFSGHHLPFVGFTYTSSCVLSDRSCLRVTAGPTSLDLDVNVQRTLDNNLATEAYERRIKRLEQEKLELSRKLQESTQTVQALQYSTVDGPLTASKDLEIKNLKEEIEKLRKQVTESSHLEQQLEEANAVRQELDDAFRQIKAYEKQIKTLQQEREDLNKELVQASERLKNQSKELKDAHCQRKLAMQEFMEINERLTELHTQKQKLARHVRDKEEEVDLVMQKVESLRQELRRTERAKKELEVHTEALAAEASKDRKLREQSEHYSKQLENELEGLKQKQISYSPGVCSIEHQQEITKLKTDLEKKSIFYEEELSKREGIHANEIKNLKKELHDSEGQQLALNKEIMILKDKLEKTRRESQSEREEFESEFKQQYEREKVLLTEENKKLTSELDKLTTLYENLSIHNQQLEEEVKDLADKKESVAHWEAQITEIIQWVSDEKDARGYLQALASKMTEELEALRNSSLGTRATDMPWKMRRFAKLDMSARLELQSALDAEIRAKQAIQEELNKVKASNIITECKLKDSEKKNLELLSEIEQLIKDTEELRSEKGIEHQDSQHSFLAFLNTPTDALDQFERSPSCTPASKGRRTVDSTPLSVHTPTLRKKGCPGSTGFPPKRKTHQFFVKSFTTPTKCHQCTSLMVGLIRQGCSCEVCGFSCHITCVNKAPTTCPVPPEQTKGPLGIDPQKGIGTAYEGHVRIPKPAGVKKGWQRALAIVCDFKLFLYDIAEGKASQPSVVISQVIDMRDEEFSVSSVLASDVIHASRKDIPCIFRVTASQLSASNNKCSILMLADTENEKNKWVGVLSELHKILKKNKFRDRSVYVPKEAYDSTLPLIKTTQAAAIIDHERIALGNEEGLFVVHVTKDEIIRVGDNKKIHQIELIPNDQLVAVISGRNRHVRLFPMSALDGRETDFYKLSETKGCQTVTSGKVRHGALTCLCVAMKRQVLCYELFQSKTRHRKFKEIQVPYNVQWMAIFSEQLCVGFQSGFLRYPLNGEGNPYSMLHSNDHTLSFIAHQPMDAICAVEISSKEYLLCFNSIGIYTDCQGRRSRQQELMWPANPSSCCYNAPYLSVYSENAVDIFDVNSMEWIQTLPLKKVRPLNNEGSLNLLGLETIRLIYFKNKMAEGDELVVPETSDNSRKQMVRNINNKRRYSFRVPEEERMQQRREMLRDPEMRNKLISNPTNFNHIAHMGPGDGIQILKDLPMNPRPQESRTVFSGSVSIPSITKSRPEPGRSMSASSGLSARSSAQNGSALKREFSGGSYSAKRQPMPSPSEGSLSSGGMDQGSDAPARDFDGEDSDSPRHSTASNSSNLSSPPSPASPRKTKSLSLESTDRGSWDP
T6 sequence (P32298 whole entry): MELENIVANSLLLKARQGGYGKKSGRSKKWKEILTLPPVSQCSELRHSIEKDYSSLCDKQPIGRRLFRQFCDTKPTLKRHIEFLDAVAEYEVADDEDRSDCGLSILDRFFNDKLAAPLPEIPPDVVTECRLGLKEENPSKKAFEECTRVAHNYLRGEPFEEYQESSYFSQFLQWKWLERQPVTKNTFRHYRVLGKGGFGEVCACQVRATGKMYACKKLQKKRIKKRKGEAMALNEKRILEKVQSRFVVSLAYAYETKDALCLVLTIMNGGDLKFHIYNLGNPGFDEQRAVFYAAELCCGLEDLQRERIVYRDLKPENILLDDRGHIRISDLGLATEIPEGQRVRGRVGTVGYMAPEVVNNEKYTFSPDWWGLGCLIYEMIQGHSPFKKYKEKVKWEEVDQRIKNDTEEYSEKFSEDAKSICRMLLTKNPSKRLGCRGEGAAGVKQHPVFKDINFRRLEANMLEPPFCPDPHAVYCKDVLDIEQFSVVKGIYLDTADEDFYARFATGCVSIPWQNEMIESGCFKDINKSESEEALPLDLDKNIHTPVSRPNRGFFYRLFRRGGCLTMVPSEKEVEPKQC
T7 sequence (O96017 whole entry): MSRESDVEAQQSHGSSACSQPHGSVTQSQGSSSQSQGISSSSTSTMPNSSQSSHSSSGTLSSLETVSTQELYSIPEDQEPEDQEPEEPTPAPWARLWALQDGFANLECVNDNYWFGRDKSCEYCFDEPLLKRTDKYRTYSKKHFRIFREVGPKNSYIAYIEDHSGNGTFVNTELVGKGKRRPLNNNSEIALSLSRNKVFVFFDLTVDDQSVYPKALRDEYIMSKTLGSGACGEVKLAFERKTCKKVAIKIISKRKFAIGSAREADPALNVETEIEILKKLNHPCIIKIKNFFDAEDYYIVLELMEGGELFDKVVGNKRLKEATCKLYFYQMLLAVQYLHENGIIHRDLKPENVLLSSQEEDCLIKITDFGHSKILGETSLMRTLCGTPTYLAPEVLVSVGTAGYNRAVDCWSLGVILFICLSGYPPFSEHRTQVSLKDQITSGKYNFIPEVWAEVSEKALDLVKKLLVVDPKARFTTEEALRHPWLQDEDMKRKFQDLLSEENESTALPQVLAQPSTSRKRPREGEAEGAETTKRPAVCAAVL

O=C(Nc1cnn(-c2csc(C(=O)NC3COC3)c2)c1)Nc1ccccc1Cl [Compound 17, 4-(4-(3-(2-chlorophenyl)ureido)-1H-pyrazol-1-yl)-N-(oxetan-3-yl)thiophene-2-carboxamide]
remaining activity at 5 µM [1]: 130% | remaining activity at 5 µM [2]: 89.7% | remaining activity at 5 µM [3]: 103% | remaining activity at 5 µM [4]: 99.3% | remaining activity at 5 µM [5]: 140% | remaining activity at 5 µM [6]: 97% | remaining activity at 5 µM [7]: 97.8% | remaining activity at 5 µM [8]: 87.5%

Cc1sc(C(=O)NC2COC2)cc1-n1cc(NC(=O)Nc2c(F)cccc2Cl)cn1 [Compound 27, 4-(4-(3-(2-chloro-6-fluorophenyl)ureido)-1H-pyrazol-1-yl)-5-methyl-N-(oxetan-3-yl)thiophene-2-carboxamide]
remaining activity at 10 µM ([1]; 10 uM): 121% | remaining activity at 10 µM ([2]; 10 uM): 69.1% | remaining activity at 10 µM ([3]; 10 uM): 105% | remaining activity at 10 µM ([4]; 10 uM): 104% | remaining activity at 10 µM ([5]; 10 uM): 103% | remaining activity at 10 µM ([6]; 10 uM): 113% | remaining activity at 10 µM ([7]; 10 uM): 95.2% | remaining activity at 10 µM ([8]; 10 uM): 64.5%

O=C(Nc1cnn(-c2csc(C(=O)NC3COC3)c2)c1)Nc1c(F)cccc1Cl [Compound 25, 4-(4-(3-(2-chloro-6-fluorophenyl)ureido)-1H-pyrazol-1-yl)-N-(oxetan-3-yl)thiophene-2-carboxamide]
remaining activity at 5 µM [1]: 93.7% | remaining activity at 5 µM [2]: 99.2% | remaining activity at 5 µM [3]: 112% | remaining activity at 5 µM [4]: 99% | remaining activity at 5 µM [5]: 108% | remaining activity at 5 µM [6]: 93.6% | remaining activity at 5 µM [7]: 91.5% | remaining activity at 5 µM [8]: 82.3%
